Among the data in ChEMBL document CHEMBL3603819, “Targeting zoonotic viruses: Structure-based inhibition of the 3C-like protease from bat coronavirus HKU4--The likely reservoir host to the human coronavirus that causes Middle East Respiratory Syndrome (MERS)” (Bioorg Med Chem, 2015) are inhibition values, retold here.

A word on the inhibition: it is the share of the control response that was lost under treatment. Read a low inhibition as a weak effect.

This test has as its system Tylonycteris bat coronavirus HKU4. Conditions: at 100 µM.

As to `CC(C)(C)NC(=O)C(c1cccnc1)N(C(=O)c1ccco1)c1ccc(NS(C)(=O)=O)cc1` (stereo not drawn), the inhibition came to 12%. The figure for `CCC(=O)Nc1ccc(N(C(=O)Cn2cnc3ccccc32)C(C(=O)NC(C)(C)C)c2ccsc2)cc1` (stereo not drawn) is 68%; for `CC(C)(C)NC(=O)C(c1cccnc1)N(C(=O)c1ccco1)c1ccc(-c2ccccn2)cc1` (stereo not drawn) it is 15%; for `CC(C)(C)NC(=O)C(c1cncnc1)N(C(=O)c1cnco1)c1ccc(C(C)(C)C)cc1` (stereo not drawn) it is 58%.

On to `CC(C)(C)OC(=O)n1cccc1-c1ccc(N(Cc2ccsc2)C(=O)Cn2nnc3ccccc32)cc1`, for which the inhibition was determined as 31%. The figure for `CC(C)(C)NC(=O)C(c1cccnc1)N(C(=O)c1cccnc1)c1ccc(C(C)(C)C)cc1` (stereo not drawn) is 13%; for `CC(C)(C)NC(=O)C(c1ccsc1)N(C(=O)Cc1cccnc1)c1ccc(F)cc1` (stereo not drawn) it is 24%; for `CC(C)(C)NC(=O)C(c1ccsc1)N(C(=O)c1n[nH]c2ccccc12)C1CC1` (stereo not drawn) it is 21%.

Consider `CC(C)(C)NC(=O)C(c1ccsc1)N(C(=O)c1ccc(C(F)(F)F)cn1)c1ccc(OCF)cc1` (stereo not drawn), for which the inhibition amounted to 18%. As for `CC(C)(C)NC(=O)C(c1cccnc1)N(C(=O)c1n[nH]c2ccccc12)C1CC1` (stereo not drawn), the figure is 21%; as for `CC(=O)Nc1ccc(N(C(=O)Cn2nnc3ccccc32)C(C(=O)NCc2ccccc2)c2cccc(F)c2)cc1` (stereo not drawn), 32%; as for `CC(C)(C)NC(=O)C(c1ccsc1)N(C(=O)Cc1cccnc1)C1CC1` (stereo not drawn), 16%. For `CC(C)(C)NC(=O)C(c1cccnc1)N(C(=O)c1ccco1)c1ccc(-c2cccc(C#N)c2)cc1` (stereo not drawn), the inhibition was 16%. The figure for `Cc1nccn1CC(=O)N(c1ccc(N)cc1)C(C(=O)NC(C)(C)C)c1ccsc1` (stereo not drawn) is 17%.

In the case of `CC(C)(C)NC(=O)C(c1cccc(F)c1)N(C(=O)Cn1nnc2ccccc21)C1CC2CCC1C2` (stereo not drawn), the inhibition worked out at 15%. As for `CC(C)(C)NC(=O)[C@@H](c1cccnc1)N(C(=O)c1c[nH]cn1)c1ccc(C(C)(C)C)cc1`, the figure is 93%; as for `CC(=O)Nc1ccc(N(C(=O)Cn2cc([Si](C)(C)C)nn2)C(C(=O)NC(C)(C)C)c2ccsc2)cc1` (stereo not drawn), 20%. In turn, `CC(C)(C)NC(=O)C(c1ccsc1)N(C(=O)Cn1nnc2ccccc21)c1ccc(NC(=O)c2ccno2)cc1` (stereo not drawn) yielded an inhibition of 76%. As for `CC(C)(C)NC(=O)C(c1cccnc1)N(C(=O)c1ccco1)C1CC2CCC1C2` (stereo not drawn), the figure is 16%; as for `CC(C)(C)NC(=O)C(c1cccnc1)N(C(=O)Cc1cccc2ccccc12)c1ccc(OCF)cc1` (stereo not drawn), 21%. Molecule `Cc1nc2ccccc2n1CC(=O)N(c1ccc(NS(C)(=O)=O)cc1)C(C(=O)NC(C)(C)C)c1ccsc1` (stereo not drawn) returned an inhibition of 13%.

The molecule `COc1ccccc1C(=O)N(c1ccc(C(C)(C)C)cc1)C(C(=O)NC(C)(C)C)c1cccnc1` (stereo not drawn) had an inhibition of 17%. As for `O=C(NCc1ccccc1)C(c1cccc(F)c1)N(C(=O)Cn1nnc2ccccc21)C1CC2CCC1C2` (stereo not drawn), the figure is 12%. As for `CC(C)(C)NC(=O)C(c1cccnc1)N(C(=O)c1ccco1)c1ccc(-c2ccccc2C#N)cc1` (stereo not drawn), the figure is 62%; as for `CC(=O)Nc1ccc(N(C(=O)Cn2ccnc2C)C(C(=O)NC(C)(C)C)c2ccsc2)cc1` (stereo not drawn), 17%.

As to `CC(C)(C)NC(=O)C(c1cccnc1)N(C(=O)c1ccco1)c1ccc(-c2cncnc2)cc1` (stereo not drawn), the inhibition was determined as 14%. The figure for `O=C(Nc1ccc(N(Cc2ccsc2)C(=O)Cn2nnc3ccccc32)cc1)C1CCCCC1` is 88%; for `CC(C)c1ccc(N(C(=O)Cc2cccnc2)C(C(=O)NC(C)(C)C)c2cccnc2)cc1` (stereo not drawn) it is 41%. As for `CC(=O)Nc1ccc(N(C(=O)Cn2cc(-c3ccccc3)nn2)C(C(=O)NC(C)(C)C)c2ccsc2)cc1` (stereo not drawn), the figure is 19%. The molecule `CC(C)C(=O)Nc1ccc(N(C(=O)Cn2cnc3ccccc32)C(C(=O)NC(C)(C)C)c2ccsc2)cc1` (stereo not drawn) registered an inhibition of 56%.

Consider `CC(C)(C)NC(=O)C(c1ccsc1)N(C(=O)Cc1c[nH]c2ccccc12)c1ccc(OCF)cc1` (stereo not drawn), for which the inhibition was determined as 25%. The figure for `CC(C)(C)NC(=O)C(c1cccnc1)N(C(=O)c1ccco1)c1ccc(-c2ccnc(F)c2)cc1` (stereo not drawn) is 16%. As for `CC(C)C(=O)Nc1ccc(N(C(=O)Cn2nnc3ccccc32)C(C(=O)NCc2ccccc2)c2cccc(F)c2)cc1` (stereo not drawn), the figure is 62%.

Regarding `O=C(Nc1ccc(N(Cc2ccsc2)C(=O)Cn2nnc3ccccc32)cc1)C1CCC1`, the inhibition came to 94%.

As to `CCC(C)c1ccc(N(C(=O)c2ccco2)[C@@H](C(=O)NC(C)(C)C)c2cccnc2)cc1` (stereo partly drawn), the inhibition was determined as 20%. As for `CC(C)(C)NC(=O)C(c1cccnc1)N(C(=O)c1ccc(C#N)cc1)c1ccc(OCF)cc1` (stereo not drawn), the figure is 15%. `CC(C)C(=O)Nc1ccc(N(C(=O)Cn2nnc3ccccc32)C(C(=O)NC(C)(C)C)c2ccsc2)cc1` (stereo not drawn) yielded an inhibition of 76%. As for `CC(C)(C)NC(=O)C(c1ccsc1)N(C(=O)c1ccc(C#N)cc1)c1ccc(C(C)(C)C)cc1` (stereo not drawn), the figure is 18%; as for `CC(C)(C)NC(=O)C(c1cccnc1)N(C(=O)c1ccco1)c1ccc(-c2cccn2C(=O)OC(C)(C)C)cc1` (stereo not drawn), 17%. The figure for `CC(C)c1ccc(N(C(=O)Cc2cccc3ccccc23)C(C(=O)NC(C)(C)C)c2cccnc2)cc1` (stereo not drawn) is 26%; for `CC(C)(C)NC(=O)C(c1c[nH]cn1)N(C(=O)c1ccco1)c1ccc(C(C)(C)C)cc1` (stereo not drawn) it is 9%; for `CC(C)(C)NC(=O)C(c1cccnc1)N(C(=O)c1ccco1)c1ccc(Oc2ccccc2)cc1` (stereo not drawn) it is 19%. The figure for `CC(C)(C)NC(=O)C(c1cccnc1)N(C(=O)Cc1cccc2ccccc12)c1ccc(C(C)(C)C)cc1` (stereo not drawn) is 26%; for `CC(C)(C)NC(=O)C(c1cncnc1)N(C(=O)c1c[nH]cn1)c1ccc(C(C)(C)C)cc1` (stereo not drawn) it is 84%; for `CC(C)(C)NC(=O)C(c1cccnc1)N(C(=O)c1ccco1)c1ccc(-c2cccc(F)c2F)cc1` (stereo not drawn) it is 18%. As to `CC(C)(C)NC(=O)C(c1cccnc1)N(C(=O)C1CCCO1)c1ccc(C(C)(C)C)cc1` (stereo not drawn), the inhibition worked out at 18%.

`CC(C)(C)NC(=O)C(c1cccnc1)N(C(=O)Cc1ccco1)C1CC1` (stereo not drawn) showed an inhibition of 43%.

Turning to `CC(C)(C)NC(=O)C(c1ccsc1)N(C(=O)Cc1cccnc1)c1ccc(OCF)cc1` (stereo not drawn), the inhibition amounted to 29%. As for `CC(C)(C)NC(=O)C(c1ccnnc1)N(C(=O)c1ccco1)c1ccc(C(C)(C)C)cc1` (stereo not drawn), the figure is 35%. As for `CCC(=O)Nc1ccc(N(C(=O)Cn2ccnc2C)C(C(=O)NC(C)(C)C)c2ccsc2)cc1` (stereo not drawn), the figure is 19%; as for `CC(C)(C)NC(=O)C(c1ccsc1)N(C(=O)c1cccc2c1CCCC2)c1ccc(F)cc1` (stereo not drawn), 17%; as for `CC(C)(C)NC(=O)C(c1ccsc1)N(C(=O)c1ccc(C(F)(F)F)cn1)c1ccc(F)cc1` (stereo not drawn), 19%. The molecule `CCOc1ccc(N(C(=O)c2ccco2)C(C(=O)NC(C)(C)C)c2cccnc2)cc1` (stereo not drawn) yielded an inhibition of 12%.

`CC(C)(C)NC(=O)C(c1cccnc1)N(C(=O)c1ccc(O)cc1)c1ccc(C(C)(C)C)cc1` (stereo not drawn) displayed an inhibition of 11%. The figure for `CCC(=O)Nc1ccc(N(C(=O)Cn2nnc3ccccc32)C(C(=O)NC(C)(C)C)c2ccsc2)cc1` (stereo not drawn) is 34%; for `CC(C)(C)NC(=O)C(c1ccsc1)N(C(=O)Cn1nnc2ccccc21)c1ccc(NC(=O)C2CCC2)cc1` (stereo not drawn) it is 20%; for `CC(C)(C)NC(=O)C(c1cccnc1)N(C(=O)c1ccsc1)c1ccc(C(C)(C)C)cc1` (stereo not drawn) it is 16%. As for `O=C(Cn1nnc2ccccc21)N(Cc1ccsc1)c1ccc(NC(=O)C(F)(F)F)cc1`, the figure is 92%; as for `CC(C)(C)NC(=O)C(c1cccnc1)N(C(=O)c1n[nH]c2ccccc12)c1ccc(OC(F)F)cc1` (stereo not drawn), 24%. `O=C(Cn1nnc2ccccc21)N(Cc1ccsc1)c1ccc(-c2ccccc2)cc1` displayed an inhibition of 21%. The figure for `CC(C)(C)NC(=O)C(c1cccnc1)N(C(=O)c1cc[nH]n1)c1ccc(C(C)(C)C)cc1` (stereo in doubt; 53B) is 28%. Take `CCCOc1ccc(N(C(=O)c2ccco2)C(C(=O)NC(C)(C)C)c2cccnc2)cc1` (stereo not drawn): the inhibition is 10%. The figure for `CC(=O)Nc1ccc(N(C(=O)Cn2nnc3ccccc32)C(C(=O)NC(C)(C)C)c2ccsc2)cc1` (stereo not drawn) is 53%; for `CC(C)c1ccc(N(C(=O)c2n[nH]c3ccccc23)C(C(=O)NC(C)(C)C)c2cccnc2)cc1` (stereo not drawn) it is 21%; for `CC(C)(C)NC(=O)C(c1ccsc1)N(C(=O)Cn1nnc2ccccc21)c1ccc(C(C)(C)C)cc1` (stereo not drawn) it is 9%. As for `CC(C)(C)NC(=O)C(c1cccnc1)N(C(=O)c1ccco1)c1ccc(C(C)(C)C)cc1` (stereo not drawn), the figure is 11%. The figure for `Cc1ccc(C(C(=O)NC(C)(C)C)N(C(=O)c2ccco2)c2ccc(C(C)(C)C)cc2)cn1` (stereo not drawn) is 8%; for `CC(C)(C)NC(=O)C(c1ccsc1)N(C(=O)Cn1nnc2ccccc21)c1ccc(NC(=O)C(C)(C)C)cc1` (stereo not drawn) it is 18%; for `CC(C)(C)NC(=O)C(c1ccsc1)N(C(=O)c1ccco1)c1ccc(C(C)(C)C)cc1` (stereo not drawn) it is 19%. For `CC(C)(C)NC(=O)C(c1cccnc1)N(C(=O)c1ccc[nH]1)c1ccc(C(C)(C)C)cc1` (stereo not drawn), the inhibition amounted to 16%. As for `CC(C)(C)NC(=O)C(c1cn[nH]c1)N(C(=O)c1ccco1)c1ccc(C(C)(C)C)cc1` (stereo not drawn), the figure is 12%; as for `CC(C)(C)NC(=O)C(c1cccnc1)N(C(=O)CO)c1ccc(C(C)(C)C)cc1` (stereo not drawn), 29%; as for `CC(C)(C)NC(=O)C(c1cccnc1)N(C(=O)c1c[nH]cn1)c1ccc(C(C)(C)C)cc1` (racemic), 94%. Consider `CC(C)(C)NC(=O)C(c1ccsc1)N(C(=O)Cc1cccc2ccccc12)C1CC1` (stereo not drawn), for which the inhibition turned out to be 22%. The figure for `CC(C)(C)NC(=O)C(c1ccsc1)N(C(=O)c1ccc(C(F)(F)F)nc1)C1CC1` (stereo not drawn) is 12%; for `CC(C)(C)NC(=O)C(c1ccsc1)N(C(=O)Cc1cccc2ccccc12)c1ccc(F)cc1` (stereo not drawn) it is 15%; for `CC(C)(C)NC(=O)C(c1cccnc1)N(C(=O)c1cccc2c1CCCC2)c1ccc(F)cc1` (stereo not drawn) it is 22%. The figure for `CC(C)(C)NC(=O)C(c1ccsc1)N(C(=O)Cn1nnc2ccccc21)c1ccc(NC(=O)c2ccccc2)cc1` (stereo not drawn) is 79%.
